Experimental data taken from US5614533A, “Substituted pipecolinic acid derivatives as HIV protease inhibitors” (Bio-Mega/Boehringer Ingelheim Research, Inc., priority 1994, dated 1997).

Assays:
HIV protease = biological target: T1, HIV protease (Human immunodeficiency virus type 1 group M subtype B, UniProt P04585); assay: Recombinant HIV Protease HPLC Assay; format: biochemical; details: 37°, 30 min, pH 5.5
T1 construct: HIV protease was expressed in E. coli; made in house; host or cells: E. coli (plasmid pBRT1 prt+)
How it was run: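 Recombinant protease from E. coli (pBRT1 prt+ construct), purified and diluted 1/38 for use, cleaves the decapeptide substrate VSFNFPQITL-NH2, containing an HIV polyprotein cleavage site. Inhibition of cleavage is monitored by HPLC.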

[1] = system: HIV (H9/HTLV-IIIB) in C8166 cells; assay: plaque assay: inhibition of syncytia formation in HIV-infected C8166 cells; format: cell-based; details: Human immunodeficiency virus 1, IIIB, 72 h, 50% inhibition of syncytia formation
How it was run: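 C8166 cells (5×10^4/well) infected with 50× TCID50 H9/HTLV-IIIB in HEPES-buffered RPMI 1640 (pH 7.2), 10% FCS, with test compound in triplicate; 72 h at 37°, 5% CO2. Syncytia centers counted by phase-contrast microscopy; EC50 from percent inhibition versus serial dilutions by non-linear regression.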

| IC50 (HIV protease; Table V) | EC50 ([1]; Table V) | IC50 (HIV protease; Table IV) | EC50 ([1]; Table IV) | SMILES | other results |
| --- | --- | --- | --- | --- | --- |
| 3.6 nM | 17 nM | – | – | Cc1cc(O[C@@H]2CCN(C[C@@H](O)[C@H](Cc3ccccc3)NC(=O)[C@@H](NC(=O)c3ccc4ccccc4n3)C(C)C)[C@H](C(=O)NC(C)(C)C)C2)nc(C)n1 [Table V, entry 13, N-tert-butyl-1-{2(S)(R)-hydroxy-4-phenyl-3(S)-{{N-(2-quinolylinylcarbonyl)valyl}amino}butyl}-4(R)-{(2,6-dimethyl-4-pyrimidinyl)oxy}piperidine-2-carboxamide] | – |
| 2.4 nM | 33 nM | – | – | CC(C)[C@H](NC(=O)c1ccc2ccccc2n1)C(=O)N[C@@H](Cc1ccccc1)[C@H](O)CN1CC[C@@H](S(=O)(=O)Cc2ccccn2)C[C@H]1C(=O)NC(C)(C)C [Table V, entry 17, N-tert-butyl-1-{2(S)(R)-hydroxy-4-phenyl-3(S)-{{N-(2-quinolylinylcarbonyl)valyl}amino}butyl}-4(R)-{(2-pyridinylmethyl)sulfonyl}piperidine-2-carboxamide] | – |
| 2.4 nM | 11 nM | – | – | Cc1cc(S[C@@H]2CCN(C[C@@H](O)[C@H](Cc3ccccc3)NC(=O)[C@@H](NC(=O)c3ccc4ccccc4n3)C(C)C)[C@H](C(=O)NC(C)(C)C)C2)nc(C)n1 [Table V, entry 22, N-tert-butyl-1-{2(R)-hydroxy-4-phenyl-3(S)-{{N-(2-quinolylinylcarbonyl)valyl}amino}butyl}-4(R)-{(2,6-dimethyl-4-pyrimidinyl)thio}piperidine-2(S)-carboxamide] | – |
| 1.5 nM | 3 nM | – | – | CC(C)[C@H](NC(=O)c1ccc2ccccc2n1)C(=O)N[C@@H](Cc1ccccc1)[C@H](O)CN1CC[C@@H](Sc2ccncc2)C[C@H]1C(=O)NC(C)(C)C [Table V, entry 5, N-tert-butyl-1-{2(S)(R)-hydroxy-4-phenyl-3(S)-{{N-(2-quinolylinylcarbonyl)valyl}amino}butyl}-4(R)-(4-pyridinylthio)piperidine-2-carboxamide] | – |

Continued, compound first:

| SMILES | IC50 (HIV protease; Table V) | EC50 ([1]; Table V) | IC50 (HIV protease; Table IV) | EC50 ([1]; Table IV) | other results |
| --- | --- | --- | --- | --- | --- |
| CC(C)(C)NC(=O)[C@@H]1C[C@H](Sc2ccccn2)CCN1C[C@@H](O)[C@H](Cc1ccccc1)NC(=O)OCc1ccccc1 [Table IV, entry 28] | – | – | 16 nM | 500 nM | – |
| CC(C)[C@H](NC(=O)OCc1ccccc1)C(=O)N[C@@H](Cc1ccccc1)[C@H](O)CN1CC[C@@H](Cc2ccccc2)C[C@H]1C(=O)NC(C)(C)C [Table IV, entry 13] | – | – | 4.1 nM | 40 nM | – |
| CC(C)[C@H](NC(=O)c1ccc2ccccc2c1)C(=O)N[C@@H](Cc1ccccc1)[C@H](O)CN1CC[C@@H](Sc2ccccc2)C[C@H]1C(=O)NC(C)(C)C [Table IV, entry 24, N-tert-butyl-1-{2(R)-hydroxy-4-phenyl-3(S)-{{N-(2-naphthalenylcarbonyl)valyl}amino}butyl}-4(R)-(phenylthio)piperidine-2(S)-carboxamide] | – | – | 2.3 nM | 16 nM | – |
| CC(C)(C)NC(=O)[C@@H]1C[C@H](Sc2ccccc2)CCN1C[C@@H](O)[C@H](Cc1ccccc1)NC(=O)[C@H](CC(N)=O)NC(=O)OCc1ccccc1 [Table IV, entry 9, N-tert-butyl-1-{3(S)-{{N-(benzyloxycarbonyl)asparaginyl}amino}-2(R)-hydroxy-4-phenylbutyl}-4(R)-(phenylthio)piperidine-2(S)-carboxamide] | – | – | 4 nM | 43 nM | – |
| Cc1cccc(C)c1OCC(=O)N[C@@H](Cc1ccccc1)[C@H](O)CN1CC[C@@H](Sc2ccncc2)C[C@H]1C(=O)NC(C)(C)C [Table VII, entry 4, N-tert-butyl-1-{3(S)-{{(2,6-dimethylphenoxy)acetyl}amino}-2(R)-hydroxy-4-phenylbutyl}-4(R)-(4-pyridinylthio)piperidine-2(S)-carboxamide] | – | – | – | – | IC50 (HIV protease; Table VII): 3.1 nM; EC50 ([1]; Table VII): 20 nM |
